Results taken from ChEMBL document CHEMBL3875160, “Structure-activity relationship study of peptidomimetic aldehydes as enterovirus 71 3C protease inhibitors” (Eur J Med Chem, 2016).
pEC50, pIC50, pKi: −log10 of the molar value.

Assays:
[1] = Inhibition of EV71 protease 3C expressed in Escherichia coli BL21 using substrate NMA-IEALFQGPPK(DNP)FR preincubated for 30 mins followed by substrate addition measured after 2 hrs; set-up: species or system Enterovirus A71
[2] = system: Enterovirus A71; test: Antiviral activity against EV71 FY pseudotype virus infected in human rhabdomyosarcoma cells after 24 hrs by bright-glo luciferase reporter gene assay; assay type: functional; conditions: Enterovirus A
[3] = Cytotoxicity against human rhabdomyosarcoma cells assessed as decrease in cell viability after 24 hrs by WST-1 assay; assay type: toxicity, cell-based

`O=C[C@H](C[C@@H]1CCCNC1=O)NC(=O)[C@H](Cc1ccccc1)NC(=O)Cc1ccccc1` showed a pIC50 [1] of 6.15, a pKi [1] of 6.32 and a pEC50 [2] of 6.27. For the same compound, the CC50 at 24 h [3] was greater than 100000 nM.
`O=C[C@H](C[C@@H]1CCCNC1=O)NC(=O)[C@H](Cc1ccccc1)NC(=O)c1ccco1` gave a pIC50 [1] of 5.96, a pKi [1] of 6.12 and a pEC50 [2] of 6.07. The CC50 at 24 h [3] was greater than 100000 nM.
For `O=C[C@H](C[C@@H]1CCCNC1=O)NC(=O)[C@H](Cc1ccc(F)cc1)NC(=O)c1cccs1`, the pIC50 [1] was 6.54, the pKi [1] was 6.70 and the pEC50 [2] was 6.80. For the same compound, the CC50 at 24 h [3] was greater than 100000 nM.
Compound `O=C[C@H](C[C@@H]1CCCNC1=O)NC(=O)[C@H](Cc1ccc(F)cc1)NC(=O)/C=C/c1ccc(F)cc1` has a pIC50 [1] of 6.33, a pKi [1] of 6.49 and a pEC50 [2] of 6.59. It also gave a CC50 at 24 h [3] greater than 100000 nM.
In the case of `O=C[C@H](C[C@@H]1CCCNC1=O)NC(=O)[C@H](Cc1ccccc1)NC(=O)/C=C/c1ccccc1`, the pIC50 [1] was 6.27, the pKi [1] was 6.43 and the CC50 at 24 h [3] was greater than 100000 nM.
For `O=C[C@H](C[C@@H]1CCCNC1=O)NC(=O)[C@H](Cc1ccccc1)NC(=O)CCc1ccccc1`, the pIC50 [1] was 6.12, the pKi [1] was 6.29 and the pEC50 [2] was 6.24. For the same compound, the CC50 at 24 h [3] was greater than 100000 nM.
In the case of `O=C[C@H](C[C@@H]1CCCNC1=O)NC(=O)[C@H](CC1CCCCC1)NC(=O)/C=C/c1ccccc1`, the pIC50 [1] was 5.92, the pKi [1] was 6.09 and the pEC50 [2] was 5.98. The CC50 at 24 h [3] was greater than 100000 nM.
With `O=C[C@H](C[C@@H]1CCCNC1=O)NC(=O)[C@H](Cc1ccccc1)NC(=O)c1cccnc1` the pIC50 [1] was 6.36, the pKi [1] was 6.52 and the pEC50 [2] was 5.45. It also gave a CC50 at 24 h [3] greater than 100000 nM.
In the case of `Cc1cc(C(=O)N[C@@H](Cc2ccccc2)C(=O)N[C@H](C=O)C[C@@H]2CCCNC2=O)no1`, the pIC50 [1] was 6.66, the pKi [1] was 6.66 and the pEC50 [2] was 6.74. It also gave a CC50 at 24 h [3] greater than 100000 nM.
In the case of `CC(C)[C@H](NC(=O)/C=C/c1ccccc1)C(=O)N[C@H](C=O)C[C@@H]1CCCNC1=O`, the pIC50 [1] was 5.25, the pKi [1] was 5.41 and the pEC50 [2] was 4.78. The CC50 at 24 h [3] was greater than 100000 nM.
`COc1ccc(/C=C/C(=O)N[C@@H](Cc2ccccc2)C(=O)N[C@H](C=O)C[C@@H]2CCCNC2=O)cc1OC` showed a pIC50 [1] of 5.80, a pKi [1] of 5.97 and a pEC50 [2] of 5.86. It also gave a CC50 at 24 h [3] greater than 100000 nM.
`O=C[C@H](C[C@@H]1CCCNC1=O)NC(=O)[C@H](Cc1ccccc1)NC(=O)c1ccncc1` gave a pIC50 [1] of 5.85, a pKi [1] of 6.01 and a pEC50 [2] of 5.07. It also gave a CC50 at 24 h [3] greater than 100000 nM.
Work on `COc1ccc(/C=C/C(=O)N[C@@H](Cc2ccccc2)C(=O)N[C@H](C=O)C[C@@H]2CCCNC2=O)cc1` yielded a pIC50 [1] of 6.31, a pKi [1] of 6.48 and a pEC50 [2] of 6.64. The CC50 at 24 h [3] was greater than 100000 nM.
With `CC(C)C[C@H](NC(=O)/C=C/c1ccccc1)C(=O)N[C@H](C=O)C[C@@H]1CCCNC1=O` the pIC50 [1] was 5.56, the pKi [1] was 5.72 and the pEC50 [2] was 5.63. For the same compound, the CC50 at 24 h [3] was greater than 100000 nM.
With `CCCCCC(=O)N[C@@H](Cc1ccccc1)C(=O)N[C@H](C=O)C[C@@H]1CCCNC1=O` the pIC50 [1] was 4.87, the pKi [1] was 5.03 and the pEC50 [2] was 5.19. The CC50 at 24 h [3] was greater than 100000 nM.
`COc1cc(/C=C/C(=O)N[C@@H](Cc2ccccc2)C(=O)N[C@H](C=O)C[C@@H]2CCCNC2=O)cc(OC)c1OC` showed a pIC50 [1] of 5.14, a pKi [1] of 5.30 and a pEC50 [2] of 5.21. For the same compound, the CC50 at 24 h [3] was greater than 100000 nM.
With `CCCC(=O)N[C@@H](Cc1ccccc1)C(=O)N[C@H](C=O)C[C@@H]1CCCNC1=O` the pIC50 [1] was 5.11, the pKi [1] was 5.28 and the pEC50 [2] was 5.39. It also gave a CC50 at 24 h [3] greater than 100000 nM.
In the case of `O=C[C@H](C[C@@H]1CCCNC1=O)NC(=O)[C@H](Cc1ccc(F)cc1)NC(=O)/C=C/c1ccccc1`, the pIC50 [1] was 6.36, the pKi [1] was 6.52 and the pEC50 [2] was 6.70. The CC50 at 24 h [3] was greater than 100000 nM.
`O=C[C@H](C[C@@H]1CCCNC1=O)NC(=O)[C@H](Cc1ccccc1)NC(=O)/C=C/c1ccc(F)cc1` gave a pIC50 [1] of 6.23, a pKi [1] of 6.40 and a pEC50 [2] of 6.49. The CC50 at 24 h [3] was greater than 100000 nM.
Compound `O=C[C@H](C[C@@H]1CCCNC1=O)NC(=O)[C@H](Cc1ccccc1)NC(=O)c1ccccc1` has a pIC50 [1] of 6.26, a pKi [1] of 6.42 and a pEC50 [2] of 6.42. For the same compound, the CC50 at 24 h [3] was greater than 100000 nM.
With `Cc1cc(C(=O)N[C@@H](Cc2ccc(F)cc2)C(=O)N[C@H](C=O)C[C@@H]2CCCNC2=O)no1` the pIC50 [1] was 7.00, the pKi [1] was 7.15 and the CC50 at 24 h [3] was greater than 100000 nM.
For `COc1ccc(/C=C/C(=O)N[C@@H](Cc2ccc(F)cc2)C(=O)N[C@H](C=O)C[C@@H]2CCCNC2=O)cc1`, the pIC50 [1] was 6.39, the pKi [1] was 6.55 and the pEC50 [2] was 6.74. For the same compound, the CC50 at 24 h [3] was greater than 100000 nM.
Compound `O=C[C@H](C[C@@H]1CCCNC1=O)NC(=O)[C@H](Cc1ccccc1)NC(=O)c1cccs1` has a pIC50 [1] of 6.38, a pKi [1] of 6.54 and a pEC50 [2] of 6.68. It also gave a CC50 at 24 h [3] greater than 100000 nM.
`O=C[C@H](C[C@@H]1CCCNC1=O)NC(=O)[C@H](Cc1ccccc1)NC(=O)c1ccc(-c2ccccc2)cc1` gave a pIC50 [1] of 5.71, a pKi [1] of 5.88 and a pEC50 [2] of 6.04. The CC50 at 24 h [3] was greater than 100000 nM.
